Reference: article PMC8544286, “Screening and Identification of a Novel Anti-tuberculosis Compound That Targets Deoxyuridine 5′-Triphosphate Nucleotidohydrolase” (Frontiers in Microbiology, 2021)
Converted amounts (≈) assume the structure as drawn. Where two headings read alike, the source gives them in different places.

Columns and labels:
[1] = tested on: multidrug-resistant strain MDR-FJ05120; assay: microbe, parasite or virus in culture; format: cell-based; conditions: Mycobacterium tuberculosis, 168 h
[2] = tested on: multidrug-resistant strain MDR-FJ05189; assay: microbe, parasite or virus in culture; format: cell-based; conditions: Mycobacterium tuberculosis, 168 h
[3] = tested on: extensive drug-resistant strain XDR-FJ05195; assay: microbe, parasite or virus in culture; format: cell-based; conditions: Mycobacterium tuberculosis, 168 h
[4] = tested on: extensive drug-resistant strain XDR-XZ06008; assay: microbe, parasite or virus in culture; format: cell-based; conditions: Mycobacterium tuberculosis, 168 h
[5] = target: Mt-P79A-dUTPase (Mycobacterium tuberculosis, UniProt P9WNS5, P79A); format: binding
[6] = […], MABA, 7 days at 37°C, read-out: MIC

Row | Structure (SMILES) | MIC [1] [µg/mL] | MIC [2] [µg/mL] | MIC [3] [µg/mL] | MIC [4] [µg/mL] | MIC [1, 6] [µg/mL] | MIC [2, 6] [µg/mL] | MIC [3, 6] [µg/mL] | MIC [4, 6] [µg/mL] | SPR binding to Mt-P79A-dUTPase [5]
1 | CO[C@H]1/C=C/O[C@@]2(C)Oc3c(C)c(O)c4c(O)c(c(/C=N/N5CCN(C)CC5)c(O)c4c3C2=O)NC(=O)/C(C)=C\C=C\[C@H](C)[C@H](O)[C@@H](C)[C@@H](O)[C@@H](C)[C@H](OC(C)=O)[C@@H]1C [Rifampicin] | > 256 | > 256 | 4 (≈ 4.86 µM) | > 256 |  |  |  |  | 
2 | NNC(=O)c1ccncc1 [Isoniazid] |  |  |  |  | 4 (≈ 29.2 µM) | < 0.5 | > 256 | > 256 | 
3 | C=CCn1c(/C=C/c2ccccc2)nc2ccccc21 [F0414] |  |  |  |  | 8 (≈ 30.7 µM) | 2 (≈ 7.68 µM) | 2 (≈ 7.68 µM) | 8 (≈ 30.7 µM) | much weaker affinity
